Columns and labels:
AR42J cells [1] = test: Amylase content and CCK response of AR42J cells after 72 h treatment; assay type: cell-based, rat
Description: Amylase Assay. For amylase determination, cells were washed free of medium with 2 ml PBS. Incubation was then carried out in DMEM containing 15 mM HEPES, 0.2% BSA and 0.01% soybean trypsin inhibitor. CCK (1 nM) was added for 50 min at 37° C. The incubation medium was then immediately removed for amylase determination and the cells were again washed in 2 ml ice-cold PBS. Lysate buffer containing (in mM) 130 Tris-HCl, 10 CaCl2, 75 NaCl, and 0.2% Triton X-100 (pH 8.0) was added to the cells and the lysates were then collected for total amylase (Ceska et al., 1969). The released amylase was expressed as the percentage of the total amylase in the cells.

[2] = Description: (§1) The rats were implanted with an Alzet micro-osmotic pump (Alza Corp., Palo Alto, Calif.) in the interscapular region for 48 hrs. […] Control animals received normal saline in their pumps and received their infusion for the same length of time.
(§2) Assays. Plasma glucose was measured by the glucose oxidase method (Egan et al., 1991). […] The amount of cellular proteins was measured using the Bradford method (Bio-Rad Richmond, Calif.) using bovine γ-globulin as standard.

Wistar rats = settings: De Ore et al., 1997; cited from earlier work
GLUT2 mRNA = test: Slot-blot quantitation of GLUT2 mRNA in pancreata and islets; assay type: in vivo, rat
Text: as §1
After an overnight fast, animals were sacrificed, pancreata were removed and frozen in liquid nitrogen as quickly as possible. RNA was extracted by homogenization in guanidinium isothiocyanate, followed by ultracentrifugation on a 5.7 M cesium chloride cushion (Glisin et al., 1974; Chigwin et al., 1979). Poly-A RNA was then prepared from total RNA by affinity chromatography using oligo (dT) columns (Biolabs INC, Beverly, Mass.). RNA was quantified by spectrophotometric analysis at […]. Slot-blot analysis using poly-A RNA was used for quantitation of mRNA levels of glucokinase, which is the main glucose sensor of the beta cell (Matschinsky, 1990), the three hexokinases, GLUT2, the major glucose transporter of the beta cell (Mueckler, 1990), and insulin. Four micrograms of poly-A RNA were diluted in 50 μl TE buffer (Tris-HCL 10 mM, EDTA 1 mM, pH 7.4), 20 μl of 37% formaldehyde and 20 μl of 10× SSC. Samples were incubated at 60° C. for 15 min and then diluted with 1 ml of ice-cold 10× SSC (1×SCC=0.15 M NaCl+0.015 sodium citrate). […]

AR42J cells [3] = test: Immunoreactive insulin release from treated AR42J cells (RIA); assay type: cell-based, rat
Description: Measurement of immunoreactive insulin. AR42J cells were cultured as before in 12-well cluster plates. When cells reached 60% confluence, they were treated with GLP-1 for 3 days. At the beginning of the experiments, an aliquot of the medium was taken in order to assay the insulin accumulation in the medium. Then the cells were twice washed with Kreb's Ringer Balanced Buffer (KRBB) and incubated in the same buffer containing 10 mM glucose for another 1 h. The medium was collected and kept at −20° C. until insulin levels were assayed by RIA (See Example 1; Wang et al., Endocrinology, 1995). The cells were washed with PBS and detached with 0.25% typsin and 0.02% EDTA. The cell pellet was collected and lysed with formic acid for protein determination by the Bradford method (Bradford, 1976), using bovine-globulin as standard.

22 month old Wistar rats = test: Intraperitoneal glucose tolerance test after 48 hrs subcutaneous GLP-1 infusion; assay type: in vivo, rat; settings: […] for 48 hrs
Description: as §1
Blood samples were obtained at 15, 30, 45, 60, and 90 min in order to estimate glucose and insulin levels. Blood (200 μl) was drawn into heparinized tubes containing EDTA for glucose and insulin determination.
as §2

pancreata = test: Pancreas weight after continuous GLP-1 infusion; assay type: in vivo, rat
Text: The pancreata of treated animals weighed 26% more than the pancreata of control animals.

[4] = system: beta cells of the pancreas; settings: Goke et al., 1993; cited from earlier work

CC[C@H](C)[C@H](NC(=O)[C@H](Cc1ccccc1)NC(=O)[C@H](CCC(=O)O)NC(=O)[C@H](CCCCN)NC(=O)[C@H](C)NC(=O)[C@H](C)NC(=O)[C@H](CCC(N)=O)NC(=O)CNC(=O)[C@H](CCC(=O)O)NC(=O)[C@H](CC(C)C)NC(=O)[C@H](Cc1ccc(O)cc1)NC(=O)[C@H](CO)NC(=O)[C@H](CO)NC(=O)[C@@H](NC(=O)[C@H](CC(=O)O)NC(=O)[C@H](CO)NC(=O)[C@@H](NC(=O)[C@H](Cc1ccccc1)NC(=O)[C@@H](NC(=O)CNC(=O)[C@H](CCC(=O)O)NC(=O)[C@H](C)NC(=O)[C@@H](N)Cc1c[nH]cn1)[C@@H](C)O)[C@@H](C)O)C(C)C)C(=O)N[C@@H](C)C(=O)N[C@@H](Cc1c[nH]c2ccccc12)C(=O)N[C@@H](CC(C)C)C(=O)N[C@H](C(=O)N[C@@H](CCCCN)C(=O)NCC(=O)N[C@@H](CCCNC(=N)N)C(N)=O)C(C)C [GLP-1]
total amylase content (AR42J cells [1]; GLP-1 added together with dexamethasone, 72 h): 7.76 U/1 | acute amylase response to CCK (1 nM) (AR42J cells [1]; cells pretreated with GLP-1 for 72 h): decreased | plasma GLP-1 before commencement of glucose tolerance testing ([2]; 120 min after removal of pumps): below the level of detectability | plasma GLP-1 levels relative to fasting levels ([2]; during infusion, fasting levels 10–20 pmol/l): approximately 6 times | dose giving maximal insulin response (Wistar rats): 0.4 nmol/kg | effect on decreased GLUT-2 mRNA levels (GLUT2 mRNA; old animals (decreased by 70% vs young controls), P<0.001): entirely reversed | effect on GLUT2 mRNA levels (GLUT2 mRNA; young animals): did not significantly influence | insulin in cell culture medium (AR42J cells [3]; 1 nM GLP-1 for 3 days, 60–72 h time period, mean±SD of 3 cultures): 5.1±0.4 pg insulin/μg protein | glucose-induced insulin in buffer (AR42J cells [3]; 3 days of GLP-1, then KRBB with 10 mM glucose for 1 h, control cells zero): 0.65±0.15 pg insulin/μg protein | blood glucose during glucose tolerance test (22 month old Wistar rats; 15 min after 1 g/kg ip glucose, control 11.61±0.23): 9.04 ± 0.92 mmol/L | blood glucose during glucose tolerance test (22 month old Wistar rats; 30 min after 1 g/kg ip glucose, control 10.36±0.43): 8.61 ± 0.39 mmol/L | pancreas weight increase over control animals (pancreata): 26%

exendin-4
lowest concentrations increasing cAMP and insulin secretion [4]: 10^−10 M

— patent publication US7056734B1, “Differentiation of non-insulin producing cells into insulin producing cells by GLP-1 or exendin-4 and uses thereof” (The United States of America as represented by the …, priority 1998, dated 2006)
